Measured values taken from patent US20050239853A1, “New compounds” (priority 2004, published 2005).
Where a name gives a salt, the structure may show the parent alone.

Target: T1, human 11-β-hydroxysteroid dehydrogenase type-1 enzyme (11-β-HSD1) (Homo sapiens, UniProt P28845)
T1 construct: made in house; host or cells: Pichia pastoris
Assay: Scintillation Proximity Assay (11-β-HSD1 enzyme assay)
Format: biochemical
Conditions: calculated from IC50 (Cheng Prushoff); tritiated Cortisone/NADPH 175 nM/181 μM; enzyme expressed in Pichia pastoris
Description: Scintillation Proximity Assay
[1,2(n)-^3H]-cortisone was purchased from Amersham Pharmacia Biotech. Anti-cortisol monoclonal mouse antibody, clone 6D6.7 was obtained from Immunotech and Scintillation proximity assay (SPA) beads coated with monoclonal antimouse antibodies were from Amersham Pharmacia Biotech. NADPH, tetrasodium salt was from Calbiochem and glucose-6-phosphate (G-6-P) was supplied by Sigma. The human 11-β-hydroxysteroid dehydrogenase type-1 enzyme (11-β-HSD1) was expressed in Pichia pastoris. 18-β-glycyrrhetinic acid (GA) was obtained from Sigma. The serial dilutions of the compounds were performed on a Tecan Genesis RSP 150. Compounds to be tested were dissolved in DMSO (1 mM) and diluted in 50 mM Tris-HCl, pH 7.2 containing 1 mM EDTA.
The multiplication of plates was done on a WallacQuadra. The amount of the product [^3H]-cortisol, bound to the beads was determined in a Packard, Top Count microplate liquid scintillation counter.
The 11-β-HSD1 enzyme assay was carried out in 96 well microtiter plates (Packard, Optiplate) in a total well volume of 220 μL and contained 30 mM Tris-HCl, pH 7.2 with 1 mM EDTA, a substrate mixture tritiated Cortisone/NADPH (175 nM/181 μM), G-6-P (1 mM) and inhibitors in serial dilutions (9 to 0.15 μM). Reactions were initiated by the addition of human 11-β-HSD1, either as Pichia pastoris cell homogenate or microsomes prepared from Pichia pastoris (the final amount of enzyme used was varied between 0.057 to 0.11 mg/mL). Following mixing, the plates were shaken for 30 to 45 minutes at room temperature. The reactions were terminated with 10 μL 1 mM GA stop solution. Monoclonal mouse antibody was then added (10 μL of 4 μM) followed by 100 μL of SPA beads (suspended according to the manufacturers instructions). Appropriate controls were set up by omitting the 11-β-HSD1 to obtain the non-specific binding (NSB) value.
The plates were covered with plastic film and incubated on a shaker for 30 minutes, at room temperature, before counting. The amount of [^3H]-cortisol, bound to the beads was determined in a microplate liquid scintillation counter. The calculation of the Ki values for the inhibitors was performed by use of Activity Base. The Ki value is calculated from IC50 and the Km value is calculated using the Cheng Prushoff equation (with reversible inhibition that follows the Michaelis-Menten equation): Ki=IC50(1+[S]/Km) [Cheng, Y. C.; Prushoff, W. H. Biochem. Pharmacol. 1973, 22, 3099-3108]. The IC50 is measured experimentally in an assay wherein the decrease of the turnover of cortisone to cortisol is dependent on the inhibition potential of each substance. The Ki values of the compounds of the present invention for the 11-β-HSD1 enzyme lie typically between about 10 nM and about 10 μM.

T1 sequence (P28845 whole entry): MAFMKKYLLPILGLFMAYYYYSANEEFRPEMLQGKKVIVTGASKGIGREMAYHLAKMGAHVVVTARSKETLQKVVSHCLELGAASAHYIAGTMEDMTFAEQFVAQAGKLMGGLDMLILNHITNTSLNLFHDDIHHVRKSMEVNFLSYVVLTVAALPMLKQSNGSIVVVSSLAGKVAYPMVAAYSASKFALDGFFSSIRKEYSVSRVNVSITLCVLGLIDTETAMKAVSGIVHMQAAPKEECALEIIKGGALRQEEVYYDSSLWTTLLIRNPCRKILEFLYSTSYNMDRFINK

| SMILES | Ki [nM] |
| --- | --- |
| Cc1c(Cl)cccc1NC1=NC(=O)C(CC(=O)N(C)c2ccccc2)S1 (stereo not drawn) [Example 109, 2-{2-[(3-chloro-2-methylphenyl)amino]-4-oxo-4,5-dihydro-1,3-thiazol-5-yl}-N-methyl-N-phenylacetamide] | 709 |
| CCC(C)CNC1=NC(=O)C(CC(=O)N2CCCc3ccccc32)S1 (stereo not drawn) [Example 125, 5-[2-(3,4-dihydroquinolin-1(2H)-yl)-2-oxoethyl]-2-[(2-methylbutyl)amino]-1,3-thiazol-4(5H)-one] | 384 |
| O=C(NCCC1SC(NC2CCCCCC2)=NC1=O)Nc1ccccc1Cl (stereo not drawn) [Example 261, N-(2-chlorophenyl)-N′-{2-[2-(cycloheptylamino)-4-oxo-4,5-dihydro-1,3-thiazol-5-yl]ethyl}urea] | 559 |
| O=C1N=C(NC2(c3ccc(Cl)cc3)CCC2)SC1CCNc1ccccc1 (stereo not drawn) [Example 335, 5-(2-anilinoethyl)-2-{[1-(4-chlorophenyl)cyclobutyl]amino}-1,3-thiazol-4(5H)-one hydrobromide] | 535 |

Tested on: not given
Assay: not given
Conditions: not given

| SMILES | melting point [°C] |
| --- | --- |
| Cc1c(Cl)cccc1NC(=O)CC1SC(NC2CC3C=CC2C3)=NC1=O (stereo not drawn) [Example 73, 2-[2-(Bicyclo[2.2.1]hept-5-en-2-ylamino)-4-oxo-4,5-dihydro-1,3-thiazol-5-yl]-N-(3-chloro-2-methylphenyl)acetamide] | 201 to 202 |
| O=C(CC1SC(NC2CC3C=CC2C3)=NC1=O)NCc1ccccc1 (stereo not drawn) [Example 74, N-Benzyl-2-[2-(bicyclo[2.2.1]hept-5-en-2-ylamino)-4-oxo-4,5-dihydro-1,3-thiazol-5-yl]acetamide] | 206 to 207 |
| O=C(CC1SC(NC2CCCCC2)=NC1=O)Nc1ccccc1Cl (stereo not drawn) [Example 97, N-(2-Chlorophenyl)-2-[2-(cyclohexylamino)-4-oxo-4,5-dihydro-1,3-thiazol-5-yl]acetamide] | 183 |
| O=C(CC1SC(N2CCCCC2)=NC1=O)Nc1ccccc1Cl (stereo not drawn) [Example 98, N-(2-Chlorophenyl)-2-(4-oxo-2-piperidin-1-yl-4,5-dihydro-1,3-thiazol-5-yl)acetamide] | 177 |
| O=C(CC1SC(NC2CC3C=CC2C3)=NC1=O)Nc1ccccc1 (stereo not drawn) [Example 99, 2-[2-(Bicyclo[2.2.1]hept-5-en-2-ylamino)-4-oxo-4,5-dihydro-1,3-thiazol-5-yl]-N-phenylacetamide] | 216 to 217 |
| O=C(CC1SC(NC2CC3C=CC2C3)=NC1=O)Nc1ccc2cn[nH]c2c1 (stereo not drawn) [Example 100, 2-[2-(Bicyclo[2.2.1]hept-5-en-2-ylamino)-4-oxo-4,5-dihydro-1,3-thiazol-5-yl]-N-1H-indazol-6-ylacetamide] | 222 to 223 |
| O=C(CC1SC(NC2CC3C=CC2C3)=NC1=O)Nc1ccc(F)cc1 (stereo not drawn) [Example 101, 2-[2-(Bicyclo[2.2.1]hept-5-en-2-ylamino)-4-oxo-4,5-dihydro-1,3-thiazol-5-yl]-N-(4-fluorophenyl)acetamide] | 215 |
| O=C(CC1SC(NC2CC3C=CC2C3)=NC1=O)Nc1ccccc1C(=O)c1ccccc1 (stereo not drawn) [Example 102, N-(2-benzoylphenyl)-2-[2-(Bicyclo[2.2.1]hept-5-en-2-ylamino)-4-oxo-4,5-dihydro-1,3-thiazol-5-yl]acetamide] | 191 to 192 |
| O=C(CC1SC(NC2CC3C=CC2C3)=NC1=O)Nc1cccc(C(=O)O)c1 (stereo not drawn) [Example 103, 3-({[2-(Bicyclo[2.2.1]hept-5-en-2-ylamino)-4-oxo-4,5-dihydro-1,3-thiazol-5-yl]acetyl}amino)benzoic acid] | 242 |
| CCNC(=O)CC1SC(NC2CC3C=CC2C3)=NC1=O (stereo not drawn) [Example 104, 2-[2-(Bicyclo[2.2.1]hept-5-en-2-ylamino)-4-oxo-4,5-dihydro-1,3-thiazol-5-yl]-N-ethylacetamide] | 187 to 188 |
| CNC(=O)CC1SC(NC2CC3C=CC2C3)=NC1=O (stereo not drawn) [Example 105, 2-[2-(Bicyclo[2.2.1]hept-5-en-2-ylamino)-4-oxo-4,5-dihydro-1,3-thiazol-5-yl]-N-methylacetamide] | 205 |
| CN(C(=O)CC1SC(NC2CC3C=CC2C3)=NC1=O)c1ccccc1Cl (stereo not drawn) [Example 107, 2-[2-(Bicyclo[2.2.1]hept-5-en-2-ylamino)-4-oxo-4,5-dihydro-1,3-thiazol-5-yl]-N-(2-chlorophenyl)-N-methylacetamide] | 149 to 150 |
| O=C(CC1SC(NC2CC3C=CC2C3)=NC1=O)Oc1ccccc1Cl (stereo not drawn) [Example 279, 2-Chlorophenyl [2-(bicyclo[2.2.1]hept-5-en-2-ylamino)-4-oxo-4,5-dihydro-1,3-thiazol-5-yl]acetate] | 211 |
| COc1ccccc1OC(=O)CC1SC(NC2CC3C=CC2C3)=NC1=O (stereo not drawn) [Example 281, 2-Methoxyphenyl [2-(bicyclo[2.2.1]hept-5-en-2-ylamino)-4-oxo-4,5-dihydro-1,3-thiazol-5-yl]acetate] | 175 to 176 |
| O=C(CC1SC(NC2CC3C=CC2C3)=NC1=O)Oc1cccc(N2CCOCC2)c1 (stereo not drawn) [Example 282, 3-Morpholin-4-ylphenyl [2-(bicyclo[2.2.1]hept-5-en-2-ylamino)-4-oxo-4,5-dihydro-1,3-thiazol-5-yl]acetate] | 203 to 204 |
| O=C(CC1SC(NC2CC3C=CC2C3)=NC1=O)c1ccc(Cl)cc1 (stereo not drawn) [Example 283, 2-(Bicyclo[2.2.1]hept-5-en-2-ylamino)-5-[2-(4-chlorophenyl)-2-oxoethyl]-1,3-thiazol-4(5H)-one] | 244 to 245 |
| O=C(O)CC1SC(NC2CC3C=CC2C3)=NC1=O (stereo not drawn) [Example 288, [2-(Bicyclo[2.2.1]hept-5-en-2-ylamino)-4-oxo4,5-dihydro-1,3-thiazol-5-yl]acetic acid] | 232 |
